Results published in patent US5801180A, “Quinazoline derivatives” (priority 1991, dated 1998).
Structures can show the parent of a compound that is named as a salt.

What follows are compounds tested against T1, cGMP-PDE prepared from the swine aeorta (Sus scrofa, UniProt A0A287B475) (assay: Enzyme inhibiting action with the use of cGMP-PDE prepared from the swine aorta). Settings: CaM-independent cGMP-PDE, 1 mM EGTA, 1 μM cGMP substrate, DMSO 4% or below.
T1 construct: The swine aeorta was sliced; from tissue; host or cells: swine aorta, 100000×g supernatant, DEAE-Toyopearl 650S fraction
Assay type: biochemical
Description: Enzyme inhibiting action with the use of cGMP-PDE prepared from the swine aeorta
The enzymatic activity of the cGMP-PDE prepared from the swine aeorta was determined according to the method of Thompson et al. ^(1). The enzymatic activity thereof was determined in the presence of 1 mM EGTA by the use of 1 μM cGMP as a substrate. The compound of the present invention was dissolved in DMSO, added to the reaction liquid and examined for the inhibitory activity. The final concentration of DMSO in the reaction liquid was adjusted to 4% or below. (1) Thompson, W. J. and Strada, S. J., Cyclic Nucleotide Phosphodiesterase (PDE), in Methods of Enzymatic Analysis, vol 4, p.127-234, 1984.
The swine aeorta was sliced, followed by the addition of 10 times by volume as much Buffer A (20 mM Tris/HCl, 2 mM Mg acetate, 1 mM Dithiothreitol, 5 mM EDTA, 1400 TIU/liter aprotinin, 10 mg/liter leupeptin, 1 mM benzamidine, 0.2 mM PMSF, pH 7.5). The obtained mixture was homogenized and the homogenate was centrifuged at 100000×g for one hour. The obtained supernatant was supplied a DEAE-Toyopearl 650S (Tosoh, Tokyo, Japan) column. After the column was washed with Buffer B (50 mM Tris/HCl, 0.1 mM EGTA, 2 mM Mg acetate, 1 mM Dithiothreitol, 0.2 mM PMSF, pH 7.5), gradient elution with 0.05 to 0.4M NaCl was conducted. Thus, CaM-independent cGMP-PDE fractions were obtained.

Row | IC50 [nM] | SMILES
1 | 110 | O=CNc1cc(CNc2ncnc3ccc(Cl)cc23)ccc1Cl [Example 152, 4-(4-Chloro-3-formamidobenzyl)amino-6-chloroquinazoline]
2 | 29 | CCOC(=O)C1CCN(c2nc(NCc3ccc4c(c3)OCO4)c3cc(Cl)ccc3n2)CC1 [Example 206, 2-(4-Ethoxycarbonylpiperidino)-4-(3,4-methylenedioxybenzyl)amino-6-chloroquinazoline hydrochloride]
3 | 30 | O=[N+]([O-])c1cc(CNc2ncnc3ccc(Cl)cc23)ccc1Cl [Example 55]
4 | 24 | CCCOc1ccccc1-c1nc(NCc2ccc3c(c2)OCO3)c2cc(Cl)ccc2n1 [Example 83, 2-(2-Propoxyphenyl)-4-(3,4-methylenedioxybenzyl)amino-6-chloroquinazoline]
5 | 69 | COc1ccc(CNc2ncnc3ccc(SC)cc23)cc1F [Example 51, 4-(3-Fluoro-4-methoxybenzyl)amino-6-methylthioquinazoline]
6 | 69 | CSc1ccc2ncnc(NCc3ccc4nc[nH]c4c3)c2c1 [Example 52, 4-(Benzimidazol-5-ylmethyl)amino-6-methylthioquinazoline]
7 | 29 | OCCNc1nc(NCc2ccc3c(c2)OCO3)c2cc(Cl)ccc2n1 [Example 188, 2-(2-Hydroxyethyl)amino-4-(3,4-methylenedioxybenzyl)amino-6-chloroquinazoline]
8 | 44 | COc1ccc(CNc2nc(N3CCC(C(=O)O)CC3)nc3c(OC)c(OC)c(OC)cc23)cc1Cl [Example 232, 2-(4-Carboxypiperidino)-4-(3-chloro-4-methoxybenzyl)amino-6,7,8-trimethoxyquinazoline]
9 | 180 | CN(CC(=O)O)c1nc(NCc2ccc3c(c2)OCO3)c2cc(C#N)ccc2n1 [Example 241, 2-(N-Carboxymethyl-N-methylamino)-4-(3,4-methylenedioxybenzyl)amino-6-cyanoquinazoline]
10 | 0.4 | COCCOc1nc(NCc2ccc3nc[nH]c3c2)c2cc(C#N)ccc2n1 [Example 171, 2-(2-Methoxyethoxy)-4-(benzimidazol-5-yl)methylamino-6-cyanoquinazoline]
11 | 350 | COc1cc2ncnc(NCc3ccc4c(c3)OCO4)c2cc1SC [Example 74, 4-(34-Methylenedioxybenzyl)amino-6-methylthio-7-methoxyquinazoline]
12 | 470 | CSc1ccc2ncnc(N(CCO)Cc3ccc4c(c3)OCO4)c2c1 [Example 54, 4-[N-(2-Hydroxyethyl)-(3,4-methylenedioxybenzyl)amino]-6-methylthioquinazoline]
13 | 500 | c1ccc2cc3c(NCc4ccc5c(c4)OCO5)ncnc3cc2c1 [Example 78, 4-(3,4-Methylenedioxybenzyl)aminobenzo[g]quinazoline]
14 | 1000 | COc1ccc(CNc2ncnc3c(OC)c(OC)c(OC)cc23)cc1 [Example 7, 4-(4-Methoxybenzyl)amino-6,7,8-trimethoxyquinazoline]
15 | 160 | COc1ccc2nc(OC)nc(NCc3ccc4c(c3)OCO4)c2c1 [Example 89, 2,6-Dimethoxy-4-(3,4-methylenedioxybenzyl)aminoquinazoline]
16 | 120 | COc1cc2c(NCc3ccc4c(c3)OCO4)nc(NCCO)nc2c(OC)c1OC [Example 187, 2-(2-Hydroxyethyl)amino-4-(3,4-methylenedioxybenzyl)amino-6,7,8-trimethoxyquinazoline]
17 | 250 | O=C(O)C1CCN(c2nc3ccc(Cl)cc3n2Cc2ccc3c(c2)OCO3)CC1 [Example 280, 2-(4-Carboxypiperidino)-6-chloro-1-(3,4-methylenedioxybenzyl)benzimidazole]
18 | 0.52 | COc1ccc(CNc2nc(N3CCC(C(=O)O)CC3)nc3ccc(C#N)cc23)cc1Cl [Example 228, 2-(4-Carboxypiperidino)-4-(3-chloro-4-methoxybenzyl)amino-6-cyanoquinazoline]
19 | 2.6 | N#Cc1ccc2nc(N3CCC(C(=O)O)CC3)nc(NCc3ccc4c(c3)OCO4)c2c1 [Example 227, 2-(4-Carboxypiperidino)-4-(3,4-methylenedioxybenzyl)amino-6-cyanoquinazoline]
20 | 17 | CCOC(=O)CCCCCNc1nc(NCc2ccc3c(c2)OCO3)c2cc(Cl)ccc2n1 [Example 216, 2-(5-Ethoxycarbonylpentyl)amino-4-(3,4-methylenedioxybenzyl)amino-6-chloroquinazoline]
21 | 190 | Cc1ccc2ncnc(NCc3ccc4c(c3)OCO4)c2c1 [Example 69, 4-(3,4-Methylenedioxybenzyl)amino-6-methylquinazoline]

Row | IC50 [nM] | SMILES
22 | 780 | COc1cc2c(NCc3ccc4c(c3)OCCO4)ncnc2c(OC)c1OC [Example 25, 4-(4-Ethylenedioxybenzyl)amino-6,7,8-trimethoxyquinazoline]
23 | 5.8 | CN(CCCC(=O)O)c1nc(NCc2ccc3c(c2)OCO3)c2cc(C#N)ccc2n1 [Example 230, 2-[N-(3-Carboxypropyl)-N-methylamino]-4-(3,4-methylenedioxybenzyl)amino-6-cyanoquinazoline]
24 | 4 | CCCCNC(=O)Nc1nc(NCc2ccc3c(c2)OCO3)c2cc(Cl)ccc2n1 [Example 204, 2-(n-Butylcarbamoyl)amino-4-(3,4-methylenedioxybenzyl)amino-6-chloroquinazoline]
25 | 350 | CCOC(=O)CN(Cc1ccc2c(c1)OCO2)c1ncnc2c(OC)c(OC)c(OC)cc12 [Example 41, 4-[N-(Ethoxycarbonylmethyl)-(3,4-methylenedioxybenzyl)amino]-6,7,8-trimethoxyquinazoline]
26 | 12 | Oc1nc(NCc2ccc3c(c2)OCO3)c2cc(Cl)ccc2n1 [Example 177, 2-Hydroxy-4-(3,4-methylenedioxybenzyl)amino-6-chloroquinazoline]
27 | 620 | CCOC(=O)c1ccc2ncnc(NCc3ccc4c(c3)OCO4)c2c1 [Example 68, 4-(3,4-Methylenedioxybenzyl)amino-6-ethoxycarbonylquinazoline]
28 | 370 | COc1cc2c(NCc3cc4c(cc3Cl)OCO4)ncnc2c(OC)c1OC [Example 33, 4-(2-Chloro-4,5-methylenedioxybenzyl)amino-6,7,8-trimethoxyquinazoline]
29 | 680 | COc1ccc2nc(O)nc(NCc3ccc4c(c3)OCO4)c2c1 [Example 140, 2-Hydroxy-4-(3,4-methylenedioxybenzyl)amino-6-methoxyquinazoline]
30 | 410 | COc1ccc2ncnc(NCc3ccc4nc[nH]c4c3)c2c1 [Example 45, 4-(Benzimidazol-5-ylmethyl)amino-6-methoxyquinazoline]
31 | 4 | CN(CCCC(=O)O)c1nc(NCc2ccc3c(c2)OCO3)c2cc(Cl)ccc2n1 [Example 240, 2-[N-(3-Carboxypropyl)-N-methylamino]-4-(3,4-methylenedioxybenzyl)amino-6-chloroquinazoline]
32 | 5 | O=C(O)CCCNc1nc(NCc2ccc3c(c2)OCO3)c2cc(Cl)ccc2n1 [Example 238, 2-(3-Carboxypropyl)amino-4-(3,4-methylenedioxybenzyl)amino-6-chloroquinazoline]
33 | 110 | COc1nc2ccc(Cl)cc2n1Cc1ccc2c(c1)OCO2 [Example 266, 6-Chloro-2-methoxy-1-(3,4-methylenedioxybenzyl)benzimidazole]
34 | 28 | CNC(=O)N(C(=O)NC)c1nc(NCc2ccc3c(c2)OCO3)c2cc(Cl)ccc2n1 [Example 203, 2-Bis(methylcarbamoyl)amino-4-(3,4-methylenedioxybenzyl)amino-6-chloroquinazoline]
35 | 940 | COc1cc2ncnc(NCc3ccc4c(c3)OCO4)c2cc1NC(C)=O [Example 73, 4-(3,4-Methylenedioxybenzyl)amino-6-acetamido-7-methoxyquinazoline]
36 | 32 | N#Cc1ccc2nc(Cl)nc(NCc3ccc4c(c3)OCO4)c2c1 [Example 93, 2-Chloro-4-(3,4-methylenedioxybenzyl)amino-6-cyanoquinazoline]
37 | 5 | OCC1CCCN1c1nc(NCc2ccc3c(c2)OCO3)c2cc(Cl)ccc2n1 (centres unmarked) [Example 190, 2-(9-Hydroxymethylpyrrolidin-1-yl)-4-(3,4-methylenedioxyybenzyl)amino-6-chloroquinazoline]
38 | 26 | COc1nc(NCc2ccc3c(c2)OCO3)c2cc(C#N)ccc2n1 [Example 166, 2-Methoxy-4-(3,4-methylenedioxybenzyl)amino-6-cyanoquinazoline]
39 | 250 | Clc1ccc2nc(-n3ccnc3)n(Cc3ccc4c(c3)OCO4)c2c1 [Example 278, 6-Chloro-2-(imidazol-1-yl)-1-(3,4-methylenedioxybenzyl)benzimidazole]
40 | 2 | COc1ccc(CNc2nc(N3CCC(C(=O)O)CC3)nc3ccc(Cl)cc23)cc1Cl [Example 235, 2-(4-Carboxypiperidino)-4-(3-chloro-4-methoxybenzyl)amino-6-chloroquinazoline]
41 | 11 | N#Cc1ccc2nc(OCCO)nc(NCc3ccc4c(c3)OCO4)c2c1 [Example 169, 2-(2-Hydroxyethoxy)-4-(3,4-methylenedioxybenzyl)amino-6-cyanoquinazoline]
